Legend:
[1] = Dissolution of Catvira film coated tablets (Ribavirin and Sofosbuvir released); type: physicochemical
Description: • 1.1. Description: Yellow to deep yellow, oblong, biconvex, film coated tablets • 1.2. Determination of Average of Weight: (Limit: 1000 mg±5%) Proceed as BP2014 • 1.3. Determination of Disintegration Time: (Limit: NMT 30 min) Proceed as USP 35 • 1.4. Determination of Dissolution test for Sofosbuvir and Ribavirin:— Conditions of Dissolution:— • USP Apparatus: II (Paddle) • Speed: […] & Materials:— • Methanol HPLC Grade. • Acetonitrile HPLC Grade • Tetrahydrofuran HPLC Grade. • Ammonium acetate • Sofosbuvir and Ribavirin working standard. Apparatus & Equipement:— • Calibrated Analytical balance accurate to±0.1 mg • HPLC:—Waters UV detector or equivalent • Column: Symmetry (C18 (5 μm) 4.6×250 mm) or equivalent. • Sonicator with temperature control • Volumetric flasks • Pipettes class A Chromatographic Conditions:— • Column: Symmetry (C18 (5 μm) 4.6×250 mm) or equivalent. • Flow rate: 0.8 ml/min. • Detector: UV at λ242 nm • Injection volume: 10 μl • Mobile phase: (Acetonitrile: Tetrahydrofuran: Ammonium Acetate) (10:40:50) • Acetate Buffer: into 1000 ml volumetric flask, weight 1 gm of Ammonium Acetate buffer, add 900 ml purified water shake to dissolve then complete to the volume by the same solvent, adjust pH 3.5 by Glacial Acetic acid. […]

HCV = HCV viral entry into human host cells; type: cell-based

Row | Structure (SMILES) | Dissolution ([1]; pH 1.2, 5 min) [%] | Dissolution ([1]; pH 1.2, 10 min) [%] | Dissolution ([1]; pH 1.2, 15 min) [%] | Dissolution ([1]; pH 1.2, 20 min) [%] | Dissolution ([1]; pH 1.2, 30 min) [%] | Dissolution ([1]; pH 1.2, 45 min) [%] | Dissolution ([1]; pH 1.2, 60 min) [%] | Dissolution ([1]; pH 1.2, 90 min) [%] | Dissolution ([1]; pH 4.5, 5 min) [%] | Dissolution ([1]; pH 4.5, 10 min) [%] | Dissolution ([1]; pH 4.5, 15 min) [%] | Dissolution ([1]; pH 4.5, 20 min) [%] | Dissolution ([1]; pH 4.5, 30 min) [%] | Dissolution ([1]; pH 4.5, 45 min) [%] | Dissolution ([1]; pH 4.5, 60 min) [%] | Dissolution ([1]; pH 4.5, 90 min) [%] | Dissolution ([1]; pH 6.8, 5 min) [%] | Dissolution ([1]; pH 6.8, 10 min) [%] | Dissolution ([1]; pH 6.8, 15 min) [%] | Dissolution ([1]; pH 6.8, 20 min) [%] | also measured
1 | CC(C)OC(=O)[C@H](C)N[P@](=O)(OC[C@H]1O[C@@H](n2ccc(=O)[nH]c2=O)[C@](C)(F)[C@@H]1O)Oc1ccccc1 [Sofosbuvir, Isopropyl (2S)-2-[(2R, 3R, 4R, 5R)-5-(2,4-dioxopyrimidin-1-yl)-4-fluoro-3-hydroxy-4-methyl-tetrahydrofuran-2-yl] methoxy-phenoxy-phosphoryl] amino] propanoate] | 13.82 | 28.77 | 44.57 | 63.43 | 85.39 | 86.07 | 88.13 | 90.79 | 15.00 | 33.94 | 52.46 | 74.22 | 98.95 | 100.44 | 101.08 | 102.04 | 36.18 | 65.56 | 83.04 | 97.55 | Dissolution ([1]; pH 6.8, 30 min): 99.80%; Dissolution ([1]; pH 6.8, 45 min): 100.04%; Dissolution ([1]; pH 6.8, 60 min): 100.47%; Dissolution ([1]; pH 6.8, 90 min): 100.39%
2 | O=C(O[C@@H]1Cc2c(O)cc(O)cc2O[C@@H]1c1cc(O)c(O)c(O)c1)c1cc(O)c(O)c(O)c1 [EGCG, (−)-Epigallocatechin Gallate] |  |  |  |  |  |  |  |  |  |  |  |  |  |  |  |  |  |  |  |  | HCV viral entry into human host cells (HCV): effectively suppressed
3 | NC(=O)c1ncn([C@@H]2O[C@H](CO)[C@@H](O)[C@H]2O)n1 [Ribavirin, 1-[(2R,3R,4S,5R)-3,4-dihydroxy-5-(hydroxymethyl)oxolan-2-yl]-1H-1,2,4-triazole-3-carboxamide] | 25.34 | 43.13 | 62.29 | 80.69 | 100.74 | 101.36 | 101.87 | 101.97 | 29.46 | 47.54 | 68.75 | 85.33 | 101.35 | 101.42 | 102.72 | 102.97 | 59.24 | 76.73 | 88.40 | 92.31 | Dissolution ([1]; pH 6.8, 30 min): 93.23%; Dissolution ([1]; pH 6.8, 45 min): 93.09%; Dissolution ([1]; pH 6.8, 60 min): 93.31%; Dissolution ([1]; pH 6.8, 90 min): 94.02%
